Assay [1] concerns Rattus norvegicus. Nature of the assay: (§1) Antiinflammatory activity against Albino rat dosed at 100 mg/kg (3h). The format is functional, organism-based. On the set-up: dose 100 mg/kg.
Assay [2] relates to Mus musculus. The experiment in a line: Analgesic activity against Swiss albino mice dosed at and activity calculated as percentage maximum possible effect (% MPE). Format: functional.
Assay [3] deals with Mus musculus. Nature of the assay: Analgesic activity against Swiss albino mice dosed at 400 mg/kg and activity calculated as percentage maximum possible effect (% MPE). Format: functional.
The subject of assay [4] is Rattus norvegicus. Nature of the assay: Antiinflammatory activity against Albino rat dosed at 300 mg/kg. The format is functional.
In assay [5] the test system is Rattus norvegicus. Nature of the assay: Antiinflammatory activity against Albino rat dosed at 200 mg/kg. Format: functional.
Assay [6] relates to Mus musculus. The experiment in a line: Analgesic activity against Swiss albino mice dosed at 200 mg/kg and activity calculated as percentage maximum possible effect (% MPE). Format: functional.
For assay [7], the system named is Rattus norvegicus. The experiment in a line: Antiinflammatory activity against Albino rat dosed at 400 mg/kg. The format is functional.
Assay [8] has as its system Mus musculus. The experiment in a line: Analgesic activity against Swiss albino mice dosed at 300 mg/kg and activity calculated as percentage maximum possible effect (% MPE). The format is functional.
Assay [9] concerns Rattus norvegicus. The experiment in a line: Antiinflammatory activity against Albino rat dosed at 300 mg/kg (3h). The format is functional.
The test system of assay [10] is Rattus norvegicus. Nature of the assay: Antiinflammatory activity against Albino rat dosed at 400 mg/kg (3h). The format is functional.
In assay [11] the test system is Rattus norvegicus. Nature of the assay: Antiinflammatory activity against Albino rat dosed at 200 mg/kg (3h). The format is functional.
For assay [12], the system named is Rattus norvegicus. Described as §1. Format: functional.
The subject of assay [13] is Mus musculus. Nature of the assay: Analgesic activity against Swiss albino mice dosed at 100 mg/kg and activity calculated as percentage maximum possible effect (% MPE); No activity. The format is functional, organism-based. On the set-up: dose 100 mg/kg.

The source made the active and inactive calls. The calls are words filed in the database; no cut-off is given here.

Drawing on ChEMBL document CHEMBL1142757, “Synthesis and biological evaluation of novel angularly fused polycyclic coumarins” (2005), this text covers inhibition, MPE and inhibition in vivo for 9 molecules.

In general, inhibition in vivo refers to the change of the read-out against control, counted positive when it falls. A higher inhibition in vivo goes with a response far below the control.

As for `CC(=O)Oc1ccccc1C(=O)O` [ASPIRIN], the inhibition entry in the assay on Rattus norvegicus [1] is “inactive”. In addition, in the assay on Mus musculus [2], the MPE was 74.9%.
Regarding `Cc1ccc2c(c1)oc(=O)c1cnc3c4ccccc4oc3c12`, the MPE is recorded as 10.8% in the assay on Mus musculus [3], 1.3% with Mus musculus [6] and 22.9% with Mus musculus [8]. The same molecule had an inhibition in vivo at 300 mg/kg in the assay on Rattus norvegicus [4] of 31.4%. The inhibition in vivo at 200 mg/kg in the assay with Rattus norvegicus [5] worked out at 24.6%. Also, at 400 mg/kg the inhibition in vivo with Rattus norvegicus [7] was 18.3%.
`CCc1nc2c3ccccc3oc2c2c1c(=O)oc1cc(C)ccc12`: the MPE in the assay with Mus musculus [3] is 7.1%; in the assay on Mus musculus [6], 2.4%; with Mus musculus [8], 4.9%. The inhibition in vivo at 300 mg/kg in the assay on Rattus norvegicus [9] is 41.7%. The molecule also had an inhibition in vivo at 400 mg/kg in the assay on Rattus norvegicus [10] of 46.5%. The inhibition in vivo at 200 mg/kg in the assay on Rattus norvegicus [11] came to 35.4%.
Turning to `O=C(O)Cc1ccccc1Nc1c(Cl)cccc1Cl` [DICLOFENAC SODIUM], the inhibition in vivo at 100 mg/kg with Rattus norvegicus [12] came to 94.5%. In addition, the MPE entry in the assay with Mus musculus [13] was “inactive”.
Take `CCc1nc2c3ccccc3oc2c2c1c(=O)oc1cc(OC)ccc12`: the MPE is 39.5% in the assay with Mus musculus [3], 24.3% in the assay on Mus musculus [6] and 24.4% in the assay on Mus musculus [8]. This molecule also yielded an inhibition in vivo at 300 mg/kg in the assay with Rattus norvegicus [9] of 78.1%. Also, the inhibition in vivo at 400 mg/kg with Rattus norvegicus [10] is 67.2%. Besides, the inhibition in vivo at 200 mg/kg in the assay on Rattus norvegicus [11] was 35.7%.
Regarding `O=c1oc2cc(Cl)ccc2c2c1cnc1c3ccccc3oc12`, the MPE was 6.8% with Mus musculus [3], 1.8% in the assay with Mus musculus [6] and 3.4% in the assay with Mus musculus [8]. Testing at 300 mg/kg in the assay with Rattus norvegicus [9] gave an inhibition in vivo of 26.3%. In addition, in the assay on Rattus norvegicus [10], testing at 400 mg/kg gave an inhibition in vivo of 29.4%. In the assay on Rattus norvegicus [11], the inhibition in vivo at 200 mg/kg was 19.2%.
Consider `Cc1ccc2c(c1)oc(=O)c1c(C)nc3c4ccccc4oc3c12`, for which the values for the MPE with Mus musculus [3], in the assay on Mus musculus [6] and in the assay on Mus musculus [8] were 18.3%, 22.9% and 24.9%, respectively. In the assay on Rattus norvegicus [9], 300 mg/kg produced 88.7% inhibition in vivo. Also, in the assay on Rattus norvegicus [10], at 400 mg/kg the inhibition in vivo was 97%. Besides, the inhibition in vivo at 200 mg/kg in the assay with Rattus norvegicus [11] was 80.7%.
For `Cc1nc2c3ccccc3oc2c2c1c(=O)oc1cc(Cl)ccc12`, the MPE in the assay on Mus musculus [3] was 9.2%; with Mus musculus [6] it was 4.7%; with Mus musculus [8] it was 7.3%. Besides, in the assay on Rattus norvegicus [9], the inhibition in vivo at 300 mg/kg was found to be 25.9%. The same molecule displayed an inhibition in vivo at 400 mg/kg in the assay with Rattus norvegicus [10] of 27.4%. Besides, in the assay on Rattus norvegicus [11], the inhibition in vivo at 200 mg/kg came out at 21.6%.
For the molecule `Cc1ccc2oc(=O)c3cnc4c5ccccc5oc4c3c2c1`, the results for the MPE in the assay with Mus musculus [3], in the assay with Mus musculus [6] and with Mus musculus [8] were 20.9%, 20.9% and 32.9%, respectively. This molecule returned an inhibition in vivo at 300 mg/kg with Rattus norvegicus [9] of 96.3%. In the assay with Rattus norvegicus [10], this molecule came in with an inhibition in vivo at 400 mg/kg of 67.2%. Besides, at 200 mg/kg the inhibition in vivo in the assay with Rattus norvegicus [11] was 89%.
